{
  "source": "PubChem BioAssay (NCI)",
  "experiment_in_all_cases": "NCI tumour cell line growth inhibition, 48 h",
  "key": {"PC-3 prostate": {"system": "PC-3 prostate"}, "SK-OV-3 ovarian": {"system": "SK-OV-3 ovarian"}, "IGROV1 ovarian": {"system": "IGROV1 ovarian"}, "SK-MEL-28 melanoma": {"system": "SK-MEL-28 melanoma"}, "A549 NSCLC": {"system": "A549 NSCLC"}, "HCT-15 colon": {"system": "HCT-15 colon"}, "KM12 colon": {"system": "KM12 colon"}, "UACC-62 melanoma": {"system": "UACC-62 melanoma"}, "HCT-116 colon": {"system": "HCT-116 colon"}, "U251 CNS": {"system": "U251 CNS"}, "CAKI-1 renal": {"system": "CAKI-1 renal"}, "COLO 205 colon": {"system": "COLO 205 colon"}, "LOX IMVI melanoma": {"system": "LOX IMVI melanoma"}, "NCI-H460 lung": {"system": "NCI-H460 lung"}, "HOP-62 NSCLC": {"system": "HOP-62 NSCLC"}, "T-47D breast": {"system": "T-47D breast"}, "SN12C renal": {"system": "SN12C renal"}, "OVCAR-4 ovarian": {"system": "OVCAR-4 ovarian"}, "SW-620 colon": {"system": "SW-620 colon"}, "MALME-3M melanoma": {"system": "MALME-3M melanoma"}, "SF-268 CNS": {"system": "SF-268 CNS"}, "HL-60(TB) leukemia": {"system": "HL-60(TB) leukemia"}, "SNB-75 CNS": {"system": "SNB-75 CNS"}, "MDA-MB-231 breast": {"system": "MDA-MB-231 breast"}, "M14 melanoma": {"system": "M14 melanoma"}, "SR leukemia": {"system": "SR leukemia"}, "K-562 leukemia": {"system": "K-562 leukemia"}, "TK-10 renal": {"system": "TK-10 renal"}, "MDA-MB-435": {"system": "MDA-MB-435"}},
  "note": "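All cell lines were grown in 96-well plates and treated with compound for 48 hours. GI50 is the concentration that inhibits growth by half. TGI denotes the concentration required for complete inhibition of growth.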",
  "data": [
    {"molecule": "Cn1cc(C2=C(c3c4n(c5ccccc35)CCC(CN)C4)C(=O)NC2=O)c2ccccc21", "note": "(configuration not stated)", "values": [
      {"measurement": "GI50", "setting": "PC-3 prostate", "value": 2770, "unit": "nM"},
      {"measurement": "TGI", "setting": "PC-3 prostate", "value": 6.59, "unit": "µM"},
      {"measurement": "GI50", "setting": "SK-OV-3 ovarian", "value": 4.11, "unit": "µM"},
      {"measurement": "TGI", "setting": "SK-OV-3 ovarian", "value": 9.16, "unit": "µM"},
      {"measurement": "GI50", "setting": "IGROV1 ovarian", "value": 4, "unit": "µM"},
      {"measurement": "TGI", "setting": "IGROV1 ovarian", "value": 8, "unit": "µM"},
      {"measurement": "GI50", "setting": "SK-MEL-28 melanoma", "value": 3.82, "unit": "µM"},
      {"measurement": "TGI", "setting": "SK-MEL-28 melanoma", "value": 7.31, "unit": "µM"},
      {"measurement": "GI50", "setting": "A549 NSCLC", "value": 3.05, "unit": "µM"},
      {"measurement": "TGI", "setting": "A549 NSCLC", "value": 7.83, "unit": "µM"},
      {"measurement": "GI50", "setting": "HCT-15 colon", "value": 4.02, "unit": "µM"},
      {"measurement": "TGI", "setting": "HCT-15 colon", "value": 8.65, "unit": "µM"},
      {"measurement": "GI50", "setting": "KM12 colon", "value": 3.42, "unit": "µM"},
      {"measurement": "TGI", "setting": "KM12 colon", "value": 6.92, "unit": "µM"},
      {"measurement": "GI50", "setting": "UACC-62 melanoma", "value": 3000, "unit": "nM"},
      {"measurement": "TGI", "setting": "UACC-62 melanoma", "value": 6.21, "unit": "µM"},
      {"measurement": "GI50", "setting": "HCT-116 colon", "value": 2000, "unit": "nM"},
      {"measurement": "TGI", "setting": "HCT-116 colon", "value": 5.77, "unit": "µM"},
      {"measurement": "GI50", "setting": "U251 CNS", "value": 2740, "unit": "nM"},
      {"measurement": "TGI", "setting": "U251 CNS", "value": 6, "unit": "µM"},
      {"measurement": "GI50", "setting": "CAKI-1 renal", "value": 3.91, "unit": "µM"},
      {"measurement": "TGI", "setting": "CAKI-1 renal", "value": 8.75, "unit": "µM"},
      {"measurement": "GI50", "setting": "COLO 205 colon", "value": 1630, "unit": "nM"},
      {"measurement": "TGI", "setting": "COLO 205 colon", "value": 5.15, "unit": "µM"},
      {"measurement": "GI50", "setting": "LOX IMVI melanoma", "value": 3.83, "unit": "µM"},
      {"measurement": "TGI", "setting": "LOX IMVI melanoma", "value": 7.53, "unit": "µM"},
      {"measurement": "GI50", "setting": "NCI-H460 lung", "value": 3.32, "unit": "µM"},
      {"measurement": "TGI", "setting": "NCI-H460 lung", "value": 7.05, "unit": "µM"},
      {"measurement": "GI50", "setting": "HOP-62 NSCLC", "value": 3.12, "unit": "µM"},
      {"measurement": "TGI", "setting": "HOP-62 NSCLC", "value": 6.62, "unit": "µM"},
      {"measurement": "GI50", "setting": "T-47D breast", "value": 3.17, "unit": "µM"},
      {"measurement": "TGI", "setting": "T-47D breast", "value": 7.49, "unit": "µM"},
      {"measurement": "GI50", "setting": "SN12C renal", "value": 2720, "unit": "nM"},
      {"measurement": "TGI", "setting": "SN12C renal", "value": 6.56, "unit": "µM"},
      {"measurement": "GI50", "setting": "OVCAR-4 ovarian", "value": 2500, "unit": "nM"},
      {"measurement": "TGI", "setting": "OVCAR-4 ovarian", "value": 7.42, "unit": "µM"},
      {"measurement": "GI50", "setting": "SW-620 colon", "value": 2960, "unit": "nM"},
      {"measurement": "TGI", "setting": "SW-620 colon", "value": 6.69, "unit": "µM"},
      {"measurement": "GI50", "setting": "MALME-3M melanoma", "value": 2750, "unit": "nM"},
      {"measurement": "TGI", "setting": "MALME-3M melanoma", "value": 6.07, "unit": "µM"},
      {"measurement": "GI50", "setting": "SF-268 CNS", "value": 3.95, "unit": "µM"},
      {"measurement": "TGI", "setting": "SF-268 CNS", "value": 7.65, "unit": "µM"},
      {"measurement": "GI50", "setting": "HL-60(TB) leukemia", "value": 4.13, "unit": "µM"},
      {"measurement": "TGI", "setting": "HL-60(TB) leukemia", "value": 8.77, "unit": "µM"},
      {"measurement": "GI50", "setting": "SNB-75 CNS", "value": 594, "unit": "nM"},
      {"measurement": "TGI", "setting": "SNB-75 CNS", "value": 4.05, "unit": "µM"},
      {"measurement": "GI50", "setting": "MDA-MB-231 breast", "value": 2530, "unit": "nM"},
      {"measurement": "TGI", "setting": "MDA-MB-231 breast", "value": 6.05, "unit": "µM"},
      {"measurement": "GI50", "setting": "M14 melanoma", "value": 3.46, "unit": "µM"},
      {"measurement": "TGI", "setting": "M14 melanoma", "value": 7.58, "unit": "µM"},
      {"measurement": "GI50", "setting": "SR leukemia", "value": 2170, "unit": "nM"},
      {"measurement": "TGI", "setting": "SR leukemia", "value": 7.81, "unit": "µM"},
      {"measurement": "GI50", "setting": "K-562 leukemia", "value": 3.54, "unit": "µM"},
      {"measurement": "TGI", "setting": "K-562 leukemia", "value": 8.27, "unit": "µM"},
      {"measurement": "GI50", "setting": "TK-10 renal", "value": 2620, "unit": "nM"},
      {"measurement": "TGI", "setting": "TK-10 renal", "value": 5.58, "unit": "µM"},
      {"measurement": "GI50", "setting": "MDA-MB-435", "value": 2520, "unit": "nM"}
    ]}
  ]
}
